Results: ChEMBL document CHEMBL5108063, “Discovery, Chemistry, and Preclinical Development of Pritelivir, a Novel Treatment Option for Acyclovir-Resistant Herpes Simplex Virus Infections” (J Med Chem, 2022)

How the values were obtained:
Human alphaherpesvirus 1 [1] = assay: Antiviral activity against HSV-1 infected in Vero cells incubated for 5 days by fluorescence based microtiter plate reader assay; type: functional, organism-based; conditions: Human alphaherpesvirus 1, Vero, 120 h
Human alphaherpesvirus 2 [2] = assay: Antiviral activity against HSV-2 infected in Vero cells incubated for 5 days by fluorescence based microtiter plate reader assay; type: functional, organism-based; conditions: Human alphaherpesvirus 2, Vero, 120 h
[3] = AUC in dog at 1 mg/kg, po; type: ADME, organism-based, Canis lupus familiaris; design: dose 1 mg/kg, route po; conditions: in vivo
[4] = Protein binding in rat plasma assessed as unbound fraction; type: ADME, cell-free
Human alphaherpesvirus 1 [5] = assay: Antiviral activity against HSV-1 infected in po dosed BALB/c mouse administered twice on infection day and three times daily from day 1 to 4 post infection; type: functional; conditions: Human alphaherpesvirus 1, 96 h, time 4 day
[6] = Oral bioavailability in rat at 1 mg/kg; type: ADME, organism-based; conditions: in vivo
[7] = AUC in monkey at 1 mg/kg, po; type: ADME, organism-based, Macaca mulatta; design: dose 1 mg/kg, route po; conditions: rhesus monkey, in vivo
[8] = AUC in rat at 1 mg/kg, po; type: ADME, organism-based; design: dose 1 mg/kg, route po; conditions: in vivo
[9] = Oral bioavailability in human at 400 mg administered as 1 hr intravenous infusion; type: ADME, organism-based; conditions: in vivo
[10] = Half life in monkey at 1 mg/kg, po; type: ADME, organism-based, Macaca mulatta; conditions: rhesus monkey, in vivo
[11] = Oral bioavailability in monkey at 1 mg/kg; type: ADME, organism-based, Macaca mulatta; conditions: rhesus monkey, in vivo
[12] = Protein binding in dog plasma assessed as unbound fraction; type: ADME, cell-free, Canis lupus familiaris
[13] = Oral bioavailability in dog at 1 mg/kg; type: ADME, organism-based, Canis lupus familiaris; conditions: in vivo
[14] = Half life in rat at 1 mg/kg, po; type: ADME, organism-based; conditions: in vivo
Human alphaherpesvirus 2 [15] = assay: Antiviral activity against HSV-2 infected in po dosed BALB/c mouse administered twice on infection day and three times daily from day 1 to 4 post infection; type: functional; conditions: Human alphaherpesvirus 2, 24 h
Human alphaherpesvirus 1 [16] = assay: Antiviral activity against HSV-1 McKrae infected in BALB/c mouse assessed as reduction in viral load at 50 mg/kg, po infected with virus for 35 days prior to heat stress reactivation followed by compound treatment immediately and at 12 hrs post reactivation measured after 24 hrs post reactivation; type: functional; design: scale not given: the % may be the effect or the level left
[17] = Half life in human at 1 mg/kg, po; type: ADME, organism-based; conditions: in vivo
[18] = Protein binding in rabbit plasma assessed as unbound fraction; type: ADME, cell-free, Oryctolagus cuniculus
[19] = Terminal elimination half life in human at […]; type: ADME, organism-based; conditions: in vivo, read-out: beta t1/2 (converted)
[20] = Protein binding in minipig plasma assessed as unbound fraction; type: ADME, cell-free, Sus scrofa domesticus; conditions: pig
[21] = Protein binding in mouse plasma assessed as unbound fraction; type: ADME, cell-free
[22] = Half life in dog at 1 mg/kg, po; type: ADME, organism-based, Canis lupus familiaris; conditions: in vivo
[23] = Oral bioavailability in human at 1 mg/kg; type: ADME, organism-based; conditions: in vivo
[24] = Protein binding in human plasma assessed as unbound fraction; type: ADME, cell-free
[25] = Protein binding in guinea pig plasma assessed as unbound fraction; type: ADME, cell-free, Cavia porcellus
[26] = AUC in human at 1 mg/kg, po; type: ADME, organism-based; design: dose 1 mg/kg, route po; conditions: in vivo
Carbonic anhydrase 2 = Carbonic anhydrase 2 (Homo sapiens, UniProt P00918); assay: Inhibition of carbonic anhydrase 2 (unknown origin) by CO2 hydration assay
[27] = Protein binding in monkey plasma assessed as unbound fraction; type: ADME, cell-free, Macaca mulatta; conditions: rhesus monkey
[28] = target: Voltage-gated inwardly rectifying potassium channel KCNH2 (Homo sapiens, UniProt Q12809); assay: Inhibition of human ERG expressed in HEK293 cells by whole cell patch clamp assay; type: toxicity, cell-based
[29] = Octanol/water partition coefficient, log P of the compound; type: physicochemical
[30] = Oral bioavailability in monkey; type: ADME, organism-based, Macaca mulatta; conditions: rhesus monkey, in vivo
[31] = Oral bioavailability in dog; type: ADME, organism-based, Canis lupus familiaris; conditions: in vivo
[32] = Oral bioavailability in rat; type: ADME, organism-based; conditions: in vivo
[33] = Oral bioavailability in human at 350 mg administered as 1 hr intravenous infusion once a week and measured upto 24 hrs; type: ADME, organism-based; conditions: in vivo

Sequence of Voltage-gated inwardly rectifying potassium channel KCNH2 (Q12809 whole entry): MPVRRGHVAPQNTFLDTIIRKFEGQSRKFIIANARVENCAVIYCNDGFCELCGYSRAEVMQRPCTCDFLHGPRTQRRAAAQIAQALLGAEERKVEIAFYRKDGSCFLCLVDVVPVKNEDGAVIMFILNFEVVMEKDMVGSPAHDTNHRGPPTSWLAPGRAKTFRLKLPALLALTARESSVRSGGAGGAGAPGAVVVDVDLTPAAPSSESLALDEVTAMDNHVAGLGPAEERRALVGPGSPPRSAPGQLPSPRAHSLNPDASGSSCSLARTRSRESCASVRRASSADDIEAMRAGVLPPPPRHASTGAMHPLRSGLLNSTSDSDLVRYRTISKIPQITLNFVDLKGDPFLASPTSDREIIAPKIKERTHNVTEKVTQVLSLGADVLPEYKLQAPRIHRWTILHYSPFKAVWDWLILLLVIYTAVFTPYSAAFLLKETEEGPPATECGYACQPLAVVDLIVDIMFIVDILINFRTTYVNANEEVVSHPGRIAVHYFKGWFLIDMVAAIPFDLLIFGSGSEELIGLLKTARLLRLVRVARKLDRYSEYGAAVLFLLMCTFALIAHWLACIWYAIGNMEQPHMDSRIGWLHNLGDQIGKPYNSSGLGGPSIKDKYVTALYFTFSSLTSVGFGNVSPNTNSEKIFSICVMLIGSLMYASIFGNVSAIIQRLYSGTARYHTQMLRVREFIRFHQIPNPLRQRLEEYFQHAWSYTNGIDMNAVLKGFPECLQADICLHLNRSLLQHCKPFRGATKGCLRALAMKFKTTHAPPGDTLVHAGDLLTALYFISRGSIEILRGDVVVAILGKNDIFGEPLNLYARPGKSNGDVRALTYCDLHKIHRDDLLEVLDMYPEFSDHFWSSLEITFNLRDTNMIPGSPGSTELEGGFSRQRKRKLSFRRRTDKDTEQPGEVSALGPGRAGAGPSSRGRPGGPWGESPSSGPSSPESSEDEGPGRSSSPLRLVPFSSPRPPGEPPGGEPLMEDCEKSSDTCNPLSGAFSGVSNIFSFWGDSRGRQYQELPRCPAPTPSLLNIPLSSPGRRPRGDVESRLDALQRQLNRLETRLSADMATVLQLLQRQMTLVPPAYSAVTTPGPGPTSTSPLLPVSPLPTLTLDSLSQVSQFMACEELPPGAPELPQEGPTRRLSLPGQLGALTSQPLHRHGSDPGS

## Cc1nc(N(C)C(=O)Cc2ccc(-c3ccccc3)cc2)sc1S(=O)(=O)NCCO
Human alphaherpesvirus 1 [1]
  IC50: 0.75 nM
Human alphaherpesvirus 2 [2]
  IC50: 5 nM

## Cc1nc(N(C)C(=O)Cc2ccc(-c3ccccn3)cc2)sc1S(N)(=O)=O
[3]
  AUC: 54200 ng·h/mL
[4]
  Fu: 1.2%
Human alphaherpesvirus 1 [5]
  ED50: 22 mg/kg
[6]
  bioavailability: 65%
[7]
  AUC: 39500 ng·h/mL
[8]
  AUC: 12900 ng·h/mL
[9]
  bioavailability: 60%
[10]
  t1/2: 30 h
[11]
  F: 63%
[12]
  Fu: 1%
[13]
  bioavailability: 83%
[14]
  t1/2: 5 h
Human alphaherpesvirus 1 [1]
  IC50: 20 nM
Human alphaherpesvirus 2 [15]
  ED50: 16 mg/kg
Human alphaherpesvirus 1 [16]
  Activity: 32%
[17]
  half-life: 60 h
[18]
  Fu: 3.4%
[19]
  half-life: 60 h
[20]
  Fu: 2.5%
[21]
  Fu: 0.97%
[22]
  t1/2: 22 h
Human alphaherpesvirus 2 [2]
  IC50: 16 nM
[23]
  F: 73%
[24]
  Fu: 2.7%
[25]
  Fu: 5.9%
[26]
  AUC: 90800 ng·h/mL
Carbonic anhydrase 2
  IC50: 2000 nM
[27]
  Fu: 0.75%
[28]
  IC50: 160000 nM

## CNS(=O)(=O)c1sc(N(C)C(=O)Cc2ccc(-c3ccccc3)cc2)nc1C
Human alphaherpesvirus 1 [1]
  IC50: 0.5 nM
Human alphaherpesvirus 2 [2]
  IC50: 50 nM

## Cc1nc(N(C)C(=O)Cc2ccc(-n3cccn3)cc2)sc1S(N)(=O)=O
Human alphaherpesvirus 1 [1]
  IC50: 10 nM
Human alphaherpesvirus 2 [2]
  IC50: 100 nM

## Cc1nc(N(C)C(=O)Cc2ccc(-c3ccccc3)cc2)sc1S(N)(=O)=O
Human alphaherpesvirus 1 [1]
  IC50: < 0.05 nM
Human alphaherpesvirus 2 [2]
  IC50: 5 nM

## CNS(=O)(=O)c1ccc2c(c1)N(C(=O)Nc1ccc(N3CCCC3)cc1)C(C)C2 (centres undefined)
Human alphaherpesvirus 1 [1]
  IC50: 25 nM
Human alphaherpesvirus 2 [2]
  IC50: 40 nM

## Cc1ccc(F)cc1-c1ccc(CC(=O)N(C)c2nc(C)c(S(N)(=O)=O)s2)cc1
Human alphaherpesvirus 1 [1]
  IC50: 100 nM
Human alphaherpesvirus 2 [2]
  IC50: 125 nM

## CC1Cc2ccc(S(N)(=O)=O)cc2N1C(=O)Nc1ccc(-c2ccccc2)cc1 (centres undefined)
Human alphaherpesvirus 1 [1]
  IC50: 10 nM
Human alphaherpesvirus 2 [2]
  IC50: 60 nM

## Cc1nc(N(C)C(=O)Cc2ccc(-c3ccccc3)cc2)sc1S(=O)(=O)NCCN
Human alphaherpesvirus 1 [1]
  IC50: 100 nM

## COc1ccccc1-c1ccc(CC(=O)N(C)c2nc(C)c(S(N)(=O)=O)s2)cc1
Human alphaherpesvirus 1 [1]
  IC50: 2 nM
Human alphaherpesvirus 2 [2]
  IC50: 0.05 nM

## Cc1nc(N(C)C(=O)Cc2ccc(-c3c(C)noc3C)cc2)sc1S(N)(=O)=O
Human alphaherpesvirus 1 [1]
  IC50: > 5 nM

## CC1Cc2ccc(S(=O)(=O)NC3CC3)cc2N1C(=O)Nc1ccc(-c2ccccc2)cc1 (centres undefined)
Human alphaherpesvirus 1 [1]
  IC50: 50 nM
Human alphaherpesvirus 2 [2]
  IC50: 150 nM

## Cc1nc(NC(=O)Nc2ccc(N3CCOCC3)cc2)sc1S(=O)(=O)N(C)C
Human alphaherpesvirus 1 [1]
  IC50: 2000 nM
Human alphaherpesvirus 2 [2]
  IC50: 4000 nM

## Cc1nc(N(C)C(=O)Nc2ccc(-c3ccccc3)cc2)sc1S(=O)(=O)NC1CC1
Human alphaherpesvirus 1 [1]
  IC50: 20 nM
Human alphaherpesvirus 2 [2]
  IC50: 100 nM

## CS(=O)(=O)O.Cc1nc(N(C)C(=O)Cc2ccc(-c3ccccn3)cc2)sc1S(N)(=O)=O.O
[29]
  logP: 1.745

## Cc1nc(N(C)C(=O)Cc2ccc(-c3ccccc3)cc2)sc1S(=O)(=O)NCC(F)(F)F
Human alphaherpesvirus 1 [1]
  IC50: 50 nM
Human alphaherpesvirus 2 [2]
  IC50: 150 nM

## COc1ccc(F)cc1-c1ccc(CC(=O)N(C)c2nc(C)c(S(N)(=O)=O)s2)cc1
Human alphaherpesvirus 1 [1]
  IC50: 0.25 nM
Human alphaherpesvirus 2 [2]
  IC50: < 0.05 nM

## Cc1nc(C(C)C(=O)Nc2ccc(-c3ccccc3)cc2)sc1S(N)(=O)=O (centres undefined)
Human alphaherpesvirus 1 [1]
  IC50: 50 nM
Human alphaherpesvirus 2 [2]
  IC50: 10 nM

## Cc1nc(N(C)C(=O)Cc2ccc(-c3cccnc3)cc2)sc1S(N)(=O)=O
Human alphaherpesvirus 1 [1]
  IC50: 5 nM
Human alphaherpesvirus 2 [2]
  IC50: 5 nM

## Cc1nc(N(C)C(=O)Nc2ccc(N3CCOCC3)cc2)sc1S(=O)(=O)N(C)C
Human alphaherpesvirus 1 [1]
  IC50: 750 nM
Human alphaherpesvirus 2 [2]
  IC50: 1500 nM

## CNS(=O)(=O)c1sc(N(C)C(=O)Nc2ccc(-c3ccccc3)cc2)nc1C
Human alphaherpesvirus 1 [1]
  IC50: 1 nM
Human alphaherpesvirus 2 [2]
  IC50: 5 nM

## Nc1nc2c(ncn2COCCO)c(=O)[nH]1 [ACYCLOVIR]
[30]
  bioavailability: 63%
Human alphaherpesvirus 2 [15]
  ED50: 0.5 mg/kg
[31]
  bioavailability: 83%
[32]
  bioavailability: 65%
[33]
  bioavailability: 54%

## Nc1nc2c(ncn2CCC(CO)CO)c(=O)[nH]1 [PENCICLOVIR]
[9]
  bioavailability: 60%

## CC(C)[C@H](N)C(=O)OCCOCn1cnc2c(=O)nc(N)[nH]c21 [VALACYCLOVIR]
Human alphaherpesvirus 1 [5]
  ED50: 17 mg/kg
Human alphaherpesvirus 2 [15]
  ED50: 14 mg/kg
